The target of the assay is PKMYT1 (Homo sapiens (Human), UniProt Q99640). The experiment in a line: PKMYT1 HTRF Assay. The class given is binding. The conditions noted are these: Tracer 178, GST-Tb; compound 10 μM to 0.5 nM; read-out: MYT1 HTRF IC50. The procedure: Example A: PKMYT1 HTRF Assay
Compound serial dilution is performed by Echo, and the final concentrations vary from 10 μM to 0.5 nM. This was filled by the addition of 5 μL/well of Enzyme solution to the assay plate containing the compound. The plate was centrifuged at 1000 rpm for 1 minute, and incubate 15 minutes at 25 ? . Then 5 μL/well of tracer solution (Tracer 178) was added to initiate the reaction, and incubate for 60 minutes at 25° C. Next 5 μL GST-Tb was added into the assay plate, the plate was centrifuged at 1000 rpm for 1 minute, and incubate for 15 minutes at 25 ? . The assay plate was read on Envision.
For orientation: TR-FRET usually uses a lanthanide donor and a delayed reading to cut background.

Data on 23 compounds can be found in patent publication US20250136596A1, “MEMBRANE-ASSOCIATED TYROSINE- AND THREONINE-SPECIFIC CDC2-INHIBITORY KINASE (PKMYT1) INHIBITORS AND USES THEREOF” (Insilico Medicine IP Limited, priority 2022, published 2025).

Molecules are shown by their SMILES.

PKMYT1, sequence (Q99640 whole entry): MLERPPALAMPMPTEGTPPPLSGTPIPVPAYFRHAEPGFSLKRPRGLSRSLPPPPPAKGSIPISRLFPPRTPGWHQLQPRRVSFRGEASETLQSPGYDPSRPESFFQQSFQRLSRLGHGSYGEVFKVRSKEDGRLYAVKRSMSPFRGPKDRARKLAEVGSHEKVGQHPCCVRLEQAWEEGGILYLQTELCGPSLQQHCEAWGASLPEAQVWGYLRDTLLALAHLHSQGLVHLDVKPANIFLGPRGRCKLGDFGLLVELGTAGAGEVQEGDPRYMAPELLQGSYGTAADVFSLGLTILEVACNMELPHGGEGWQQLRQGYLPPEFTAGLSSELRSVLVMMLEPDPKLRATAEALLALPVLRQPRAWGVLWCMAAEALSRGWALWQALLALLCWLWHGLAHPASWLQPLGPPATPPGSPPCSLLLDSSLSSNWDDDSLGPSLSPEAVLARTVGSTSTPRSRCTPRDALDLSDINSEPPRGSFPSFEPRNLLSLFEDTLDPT

Turning to `Cc1ccc(O)c(C)c1-c1cnc2[nH]c(-c3cnc(OCC(O)CO)nc3)cc2c1C#N` [Example 83, (5R)-2-(2-(2,3-dihydroxypropoxy)pyrimidin-5-yl)-5-(3-hydroxy-2,6-dimethylphenyl)-1H-pyrrolo[2,3-b]pyridine-4-carbonitrile], the IC50 is below 10 nM. For `Cc1ncc(-c2[nH]c3ncc(-c4c(C)ccc(O)c4C)nc3c2C)cn1` [Example 13, 2,4-dimethyl-3-(7-methyl-6-(2-methylpyrimidin-5-yl)-5H-pyrrolo[2,3-b]pyrazin-2-yl)phenol] the value was 10 to 50 nM.

For `CC(=O)N1CC=C(c2cc3cc(-c4c(C)ccc(O)c4C)cnc3[nH]2)CC1` [Example 6, 1-(4-(5-(3-hydroxy-2,6-dimethylphenyl)-1H-pyrrolo[2,3-b]pyridin-2-yl)-3,6-dihydropyridin-1 (2H)-yl)ethan-1-one], the IC50 lay within 50 to 500 nM. Regarding `Cc1ncc(-c2cc3c(C#N)c(-c4c(C)ccc(O)c4C)cnc3[nH]2)s1` [Example 59, (R)-5-(3-hydroxy-2,6-dimethylphenyl)-2-(2-methylthiazol-5-yl)-1H-pyrrolo[2,3-b]pyridine-4-carbonitrile], the IC50 is below 10 nM. As to `Cc1ccc(O)c(C)c1-c1cnc2[nH]c(-c3cnc4[nH]ncc4c3)cc2c1C#N` [Example 123, (S)-5-(3-hydroxy-2,6-dimethylphenyl)-2-(1H-pyrazolo[3,4-b]pyridin-5-yl)-1H-pyrrolo[2,3-b]pyridine-4-carbonitrile], the IC50 is below 10 nM. `Cc1ccc(O)c(C)c1-c1cnc2[nH]c(-c3cnc(NC4COC4)nc3)cc2c1C#N` [Example 98, (R)-5-(3-hydroxy-2,6-dimethylphenyl)-2-(2-(oxetan-3-ylamino)pyrimidin-5-yl)-1H-pyrrolo[2,3-b]pyridine-4-carbonitrile]: the IC50 is below 10 nM.

On to `Cc1ncc(-c2[nH]c3ncc(-c4c(C)ccc(O)c4C)nc3c2C#CC(C)(C)O)cn1` [Example 20, 3-(7-(3-hydroxy-3-methylbut-1-yn-1-yl)-6-(2-methylpyrimidin-5-yl)-5H-pyrrolo[2,3-b]pyrazin-2-yl)-2,4-dimethylphenol], for which the IC50 is below 10 nM. With `Cc1ncc(-c2nc3cc(-c4c(C)ccc(O)c4C)cnc3[nH]2)cn1` [Example 114, 2,4-dimethyl-3-(2-(2-methylpyrimidin-5-yl)-3H-imidazo[4,5-b]pyridin-6-yl)phenol] the figure was 50 to 500 nM; with `Cc1ccc(-c2cc3c(Cl)c(-c4c(C)ccc(O)c4C)cnc3[nH]2)cn1` [Example 10, 3-(4-chloro-2-(6-methylpyridin-3-yl)-1H-pyrrolo[2,3-b]pyridin-5-yl)-2,4-dimethylphenol], below 10 nM. With `Cc1ccc(O)c(C)c1-c1cnc2[nH]c(-c3cnc(NC4CC(O)C4)nc3)cc2c1C#N` [Example 102, (R)-5-(3-hydroxy-2,6-dimethylphenyl)-2-(2-((3-hydroxycyclobutyl)amino)pyrimidin-5-yl)-1H-pyrrolo[2,3-b]pyridine-4-carbonitrile] the figure was below 10 nM; with `Cc1ccc(O)c(C)c1-c1cnc2[nH]c(-c3ccc(N4CCN(C)CC4)nc3)cc2c1` [Example 4, 2,4-dimethyl-3-(2-(6-(4-methylpiperazin-1-yl)pyridin-3-yl)-1H-pyrrolo[2,3-b]pyridin-5-yl)phenol], 50 to 500 nM; with `CC#Cc1ncc(-c2cc3c(C#N)c(-c4c(C)ccc(O)c4C)cnc3[nH]2)cn1` [Example 104, (R)-5-(3-hydroxy-2,6-dimethylphenyl)-2-(2-(prop-1-yn-1-yl)pyrimidin-5-yl)-1H-pyrrolo[2,3-b]pyridine-4-carbonitrile], below 10 nM. With `Cc1ccc(O)c(C)c1-c1cnc2[nH]c(-c3cnc(N4CC(O)C4)nc3)c(Cl)c2c1C#N` [Example 46, (R)-3-chloro-5-(3-hydroxy-2,6-dimethylphenyl)-2-(2-(3-hydroxyazetidin-1-yl)pyrimidin-5-y1)-1H-pyrrolo[2,3-b]pyridine-4-carbonitrile] the figure was below 10 nM; with `Cc1ccc(O)c(C)c1-c1cnc2[nH]c(-c3cnc(N4C[C@@H]5C[C@H]4CO5)nc3)c(C#CC(C)(C)O)c2n1` [Example 21, 3-(6-(2-((1S,4S)-2-oxa-5-azabicyclo[2.2.1]heptan-5-yl)pyrimidin-5-yl)-7-(3-hydroxy-3-methylbut-1-yn-1-yl)-5H-pyrrolo[2,3-b]pyrazin-2-yl)-2,4-dimethylphenol], below 10 nM. Take `Cc1ccc(O)c(C)c1-c1cnc2[nH]c(-c3cnc(C(F)F)nc3)c(Cl)c2c1C#N` [Example 54, (S)-3-chloro-2-(2-(difluoromethyl)pyrimidin-5-yl)-5-(3-hydroxy-2,6-dimethylphenyl)-1H-pyrrolo[2,3-b]pyridine-4-carbonitrile]: the IC50 is below 10 nM. For `Cc1ccc(O)c(C)c1-c1cnc2[nH]c(-c3cnc(N(C)C4COC4)nc3)cc2c1C#N` [Example 96, (R)-5-(3-hydroxy-2,6-dimethylphenyl)-2-(2-(methyl(oxetan-3-yl)amino)pyrimidin-5-yl)-1H-pyrrolo[2,3-b]pyridine-4-carbonitrile] the value was 10 to 50 nM. For `Cc1ccc(O)c(C)c1-c1cnc2[nH]c(-c3cnc(OC(F)F)nc3)cc2c1C#N` [Example 85, 2-(2-(difluoromethoxy)pyrimidin-5-yl)-5-(3-hydroxy-2,6-dimethylphenyl)-1H-pyrrolo[2,3-b]pyridine-4-carbonitrile] the value was below 10 nM; for `Cc1ccc(O)c(C)c1-c1cnc2[nH]c(-c3cnn(C)c(=O)c3)c(Cl)c2c1C#N` [Example 66, (R)-3-chloro-5-(3-hydroxy-2,6-dimethylphenyl)-2-(1-methyl-6-oxo-1,6-dihydropyridazin-4-yl)-1H-pyrrolo[2,3-b]pyridine-4-carbonitrile], below 10 nM; for `Cc1ncc(-c2[nH]c3ncc(-c4c(C)ccc(O)c4C)c(C#N)c3c2Cl)cn1` (atropisomer, axis not shown) [Example 33, (S)-3-chloro-5-(3-hydroxy-2,6-dimethylphenyl)-2-(2-methylpyrimidin-5-yl)-1H-pyrrolo[2,3-b]pyridine-4-carbonitrile], below 10 nM. For the compound `Cc1ccc(O)c(C)c1-c1cnc2[nH]c(-c3cnc(N4CC(C(=O)O)C4)nc3)c(Cl)c2c1C#N` [Example 70, (R)-1-(5-(3-chloro-4-cyano-5-(3-hydroxy-2,6-dimethylphenyl)-1H-pyrrolo[2,3-b]pyridin-2-yl)pyrimidin-2-yl)azetidine-3-carboxylic acid], the IC50 is below 10 nM. `Cc1ccc(O)c(C)c1-c1cnc2[nH]c(-c3nnc[nH]3)cc2c1C#N` [Example 135, 5-(3-hydroxy-2,6-dimethylphenyl)-2-(4H-1,2,4-triazol-3-yl)-1H-pyrrolo[2,3-b]pyridine-4-carbonitrile]: the IC50 is below 10 nM. For `Cc1ccc(O)c(C)c1-c1cnc2[nH]c(-c3cnc(CO)nc3)cc2c1C#N` [Example 58, (S)-5-(3-hydroxy-2,6-dimethylphenyl)-2-(2-(hydroxymethyl)pyrimidin-5-yl)-1H-pyrrolo[2,3-b]pyridine-4-carbonitrile] the value was below 10 nM; for `COCCOc1ncc(-c2cc3c(C#N)c(-c4c(C)ccc(O)c4C)cnc3[nH]2)cn1` [Example 75, (R)-5-(3-hydroxy-2,6-dimethylphenyl)-2-(2-(2-methoxyethoxy)pyrimidin-5-yl)-1H-pyrrolo[2,3-b]pyridine-4-carbonitrile], below 10 nM.

As usually defined, the IC50 is the concentration that inhibits the measured activity by half.
